Read-outs that look alike come from different tables or passages of the source.
Experiments:
[1] = system: German cockroaches (Blattella germanica); assay: whole plant or invertebrate
Text: 2 male imagoes of German cockroaches (Blattella germanica) were released in the polyethylene cup, which was then covered with a lid.

[2] = system: common house mosquito (Culex pipiens pallens); assay: whole plant or invertebrate; type: in vivo; conditions: concentration of active ingredients of 3.5 ppm in ion exchange water, final-instar larvae, after 24 hours
[3] = system: gambiae sensu stricto (Anopheles gambiae); assay: whole plant or invertebrate; type: in vivo; conditions: 48 h, 167 ppm in acetone, 0.3 μl topically applied to chest back plate of females, 2 days after the topical application
Procedure: 10 mg of each of the compounds (1a-1), (1a-2), (1a-4), (1a-5), (1a-6), (1a-7), (1a-19), (1a-20), (1a-22), (1a-23), (1a-32), (1a-38), (1a-39), (1a-77), (1b-1), and (1b-2) of the present invention was dissolved in 3 ml of acetone. Test solutions were prepared by diluting each of the above solutions 20-fold with acetone (concentration of active ingredients of 167 ppm). […] The test was performed on 10 imagos per group, after the topical application, the imagos were transferred to a cup, and 5 percent sugar water was given.

[4] = system: German cockroaches (Blattella germanica); conditions: 500 ppm, 0.7 ml on filter paper, sucrose bait; male imagoes; after 24 hours
[5] = system: two-spotted spider mite (Tetranychus urticae); assay: Test Example 6: kidney bean spray, two-spotted spider mite controlling value; type: in vivo; conditions: 500 ppm sprayed on kidney beans; female imagoes; 25° C.; 7 days after the treatment
Text: 10 female imagoes of two-spotted spider mite (Tetranychus urticae) were released on kidney beans immediately after the primary leaf development. The next day, the test solution was sprayed at an amount in which the test solution dripped, using a spray gun. […] Controlling value (%)=(1−the number of surviving female imagoes in a treatment section/the number of surviving female imagoes in a non-treatment section)×100

[6] = system: diamondback moths (Plutella xylostella); conditions: 500 ppm test solution, 20 ml scattered on cabbage; second-instar larvae; 25° C.; after 5 days
Procedure: 20 ml of the above-described test solution was scattered on cabbages (Brassicae oleracea) in a third- or fourth-leaf stage. After air-drying the test solution, the overground portion was cut, collected, and accommodated in a polyethylene cup (capacity of 100 ml) together with 5 second-instar larvae of diamondback moths (Plutella xylostella), followed by storing at 25° C.

[7] = system: common houseflies (Musca domestica); conditions: 500 ppm, 0.7 ml on filter paper, sucrose bait; female imagoes; after 24 hours
Text: 10 female imagoes of common houseflies (Musca domestica) were released in the polyethylene cup, which was then covered with a lid.

Question: What does the source list for `COc1ccccc1COc1ncc(SC)s1` [Compound 1a-1, 2-(2-methoxybenzyloxy)-5-methylthiothiazole]?
Answer: mortality at 500 ppm ([1]; Blattella germanica, 144 h): 100%; mortality at 3.5 ppm [2]: ≥ 90%; mortality at 167 ppm [3]: ≥ 90%

Question: For `CSc1cnc(OCc2ccccc2C)s1` [Compound 1a-2], which Mortality [4] is on record?
Answer: Its Mortality is 100%.

Question: `COc1ccccc1COc1nc(C)c(SC)s1` [Compound 1a-6] was tested. Which Controlling value [5] did it give?
Answer: The Controlling value was at least 90%.

Question: `CSc1cnc(OCc2cccnc2)s1` [Compound 1a-9] was tested. Which Mortality [6] did it give?
Answer: Its Mortality is at least 80%.

Question: Which Mortality [4] does the source give for `CSc1cnc(OCc2c(C)cccc2F)s1` [Compound 1a-16] here?
Answer: The Mortality was 100%.

Question: Which Mortality ([1]; 500 ppm, 0.7 ml on filter paper, sucrose bait, male imagoes, after 6 days) does the source give for `CSc1cnc(OCc2cc(F)ccc2C)s1` [Compound 1a-19] here?
Answer: The Mortality was 100%.

Question: `CSc1cnc(OCc2cscc2C)s1` [Compound 1a-20] was tested. Which Mortality [4] did it give?
Answer: The Mortality was 100%.

Question: How did the Mortality [7] turn out when `COc1ccc(F)cc1COc1ncc(SC)s1` [Compound 1a-23] was run?
Answer: Its Mortality is 100%.

Question: For `COc1ccc(OC)c(COc2ncc(SC)s2)c1` [Compound 1a-24], which Mortality [7] is on record?
Answer: Its Mortality is 100%.

Question: Which Mortality [7] does the source give for `CSc1cnc(OCc2ccoc2)s1` [Compound 1a-75] here?
Answer: Its Mortality is 100%.

Question: `CCSc1cnc(OCc2ccccc2C)s1` [Compound 1a-201, 2-(2-methylbenzyloxy)-5-ethylthiothiazole] was tested. Which mortality at 3.5 ppm [2] did it give?
Answer: Its mortality at 3.5 ppm is at least 90%.

Question: For `COc1ccccc1COc1ncc([S+](C)[O-])s1` (centres unmarked) [Compound 1b-1, 2-(2-methoxybenzyloxy)-5-methylsulfinylthiazole], which mortality at 167 ppm [3] is on record?
Answer: Its mortality at 167 ppm is at least 90%.
